# Results published in PubChem BioAssay (NCI).
# Several values for one entry are separate records, joined by “and”; a condition that tells them apart may be missing. Equal entries are not always repeated.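 A five-concentration, 48-hour dose response in 96-well plates underlies each endpoint, interpolated linearly between surrounding concentrations. GI50: concentration for 50% inhibition of growth. The concentration for full growth arrest is given as TGI.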
# Tested on: A498 renal
# Test: NCI anticancer screen, dose series, 48 h
Structure (SMILES),GI50,TGI
c1coc(-c2c3ccc(=[N+]4CCCCC4)cc-3oc3cc(N4CCCCC4)ccc23)c1,78.4 nM,0.568 µM
Cc1[nH]c2ccccc2c1C1Cc2ccccc2N1C(=O)C#Cc1ccc([N+](=O)[O-])cc1 (stereo not given),,> 100 µM
Cn1c(=O)nc2n(-c3cc(C(F)(F)F)cc(C(F)(F)F)c3)c3ccccc3nc-2c1=O,,> 100 µM

# Tested on: IGROV1 ovarian
# Test: NCI anticancer screen, dose series, 48 h
Structure (SMILES),GI50,TGI
O=C(O)c1cccc(COc2ccc([N+](=O)[O-])cc2Cl)c1,74600 nM,> 100 µM
COC(=O)C1=COC(C)C2CN3CCc4c([nH]c5ccccc45)C3CC12 (stereo not given),22100 nM and > 100000 nM,80.2 µM and > 100 µM
CCC(C)(O)c1cnc(CC(C)C)c(=O)n1O (stereo not given),,> 100 µM
CCC1CN2CCc3cc(OC)c(OC)cc3C2CC1CC1c2cc(OC)c(OC)cc2CCN1C(=O)C1CCCN1 (stereo not given),,71.7 µM
CC(C(=O)c1ccc(Cl)cc1)/C(=N/NC(=O)NN)C(=O)Nc1cccc(C(F)(F)F)c1 (stereo not given),,> 100 µM
COc1cc2c(/C=N\N=C(N)N)c[nH]c2cc1C,33200 nM,> 100 µM
CCOP(=O)(OCC)C(C(=O)OC)C(=O)C(=O)Nc1ccc(Cl)cc1Cl (stereo not given),,> 100 µM
C=CC(=O)N1CN(C(=O)C=C)CN(C(=O)C=C)C1,3340 nM,11.3 µM
CC(C)(C)c1ccc2c(c1)S(=O)(=O)Nc1ccc(Cl)cc1NS(=O)(=O)c1cc(C(C)(C)C)ccc1OCCOCCOCCO2,,> 100 µM
O=C(/C(=C\c1c(-c2ccccc2)[nH]c2ccccc12)S(=O)(=O)c1ccccc1)c1ccccc1,> 100000 nM,> 100 µM
COc1ccc(C(=O)c2cc(OC)c(OC)c(OC)c2)cc1OC,,> 100 µM
O=C1c2ccccc2-c2c1c1ccccc1c(=O)n2CCN1CCNCC1,3610 nM,> 100 µM
CN(C)CCNCCN,,> 100 µM
COC(=O)c1cc2c(o1)-c1nccc3c1c(nc1ccccc13)C2=O,1400 nM,4.42 µM
O=C(c1ccco1)c1c(C(F)(F)F)n([O-])c2ccc(C(F)(F)F)cc2[n+]1=O,368 nM,1.48 µM
CC(=O)N1CCN(c2ccc(OCC3COC(Cn4ccnc4)(c4ccc(Cl)cc4Cl)O3)cc2)CC1 (stereo not given),,> 100 µM
O=C(Cc1nc2c3c(ccc2[nH]c1=O)C(=O)c1ccccc1C3=O)C(=O)Nc1ccccc1[N+](=O)[O-],,65.4 µM
Nc1nc(-c2ccc(Cl)c([N+](=O)[O-])c2)cs1,,> 100 µM
CC1(C)CN=C(NN=C(/C=C/c2ccc(C(F)(F)F)cc2)/C=C/c2ccc(C(F)(F)F)cc2)NC1,1440 nM,2.88 µM
COc1cc(/C=C\c2cc(OC)c(OC)c(OC)c2)cc(N/C=C\C(=O)c2c[nH]c3ccccc23)c1OC,1230 nM,3.56 µM
Cn1c(=O)c2c(nc(C(=N)SCC(=O)O)n2C)n(C)c1=O,,> 100 µM
COc1ccc(-c2nn(-c3cccc(Cl)c3)cc2-c2cc(-c3ccccc3)[nH]c(=O)c2C#N)cc1,1890 nM,7.71 µM
CC(C)(C)[Si](C)(C)OC1[C@@H](CNC(=O)NC(=O)CCl)O[C@@H](n2cnc3c(N)ncnc32)[C@H]1O[Si](C)(C)C(C)(C)C (stereo not given in full),154 nM,0.441 µM
NC(=O)C(=O)CC(=O)c1ccccc1NC1=CC(=O)C(=O)c2ccccc21,,> 100 µM
CCCC(=O)C1=C(O)C(Cc2c(O)c(C)c(O)c(C(=O)CCC)c2O)=C(O)C(C)(C)C1=O,,> 50 µM
Cc1ccccc1C1=[N+]([O-])c2ccc(Cl)cc2C1=O,,29.8 µM
Cc1[nH]c2ccccc2c1C1Cc2ccccc2N1C(=O)C#Cc1ccc([N+](=O)[O-])cc1 (stereo not given),,> 100 µM
CCC/C=C/C=C/C1CC(O)C(O)C(=O)C1CO (stereo not given),,> 100 µM
Cn1c(=O)nc2n(-c3cc(C(F)(F)F)cc(C(F)(F)F)c3)c3ccccc3nc-2c1=O,,> 100 µM

# Tested on: OVCAR-5 ovarian
# Test: NCI anticancer screen, dose series, 48 h
Structure (SMILES),GI50,TGI
O=C(O)c1cccc(COc2ccc([N+](=O)[O-])cc2Cl)c1,> 100000 nM,> 100 µM
COC(=O)C1=COC(C)C2CN3CCc4c([nH]c5ccccc45)C3CC12 (stereo not given),,> 100 µM
CCC(C)(O)c1cnc(CC(C)C)c(=O)n1O (stereo not given),,25.8 µM
CCC1CN2CCc3cc(OC)c(OC)cc3C2CC1CC1c2cc(OC)c(OC)cc2CCN1C(=O)C1CCCN1 (stereo not given),,> 100 µM
CC(C(=O)c1ccc(Cl)cc1)/C(=N/NC(=O)NN)C(=O)Nc1cccc(C(F)(F)F)c1 (stereo not given),,> 100 µM
COc1cc2c(/C=N\N=C(N)N)c[nH]c2cc1C,21400 nM,64 µM
CCOP(=O)(OCC)C(C(=O)OC)C(=O)C(=O)Nc1ccc(Cl)cc1Cl (stereo not given),,> 100 µM
Cn1cc(-c2csc(-c3cn(CCCCN4CCCCC4)c4ccccc34)n2)c2cccnc21,1600 nM,3.06 µM
C=CC(=O)N1CN(C(=O)C=C)CN(C(=O)C=C)C1,10600 nM,24.7 µM
CC(C)(C)c1ccc2c(c1)S(=O)(=O)Nc1ccc(Cl)cc1NS(=O)(=O)c1cc(C(C)(C)C)ccc1OCCOCCOCCO2,,> 100 µM
O=C(/C(=C\c1c(-c2ccccc2)[nH]c2ccccc12)S(=O)(=O)c1ccccc1)c1ccccc1,> 100000 nM,> 100 µM
COc1ccc(C(=O)c2cc(OC)c(OC)c(OC)c2)cc1OC,,> 100 µM
O=C1c2ccccc2-c2c1c1ccccc1c(=O)n2CCN1CCNCC1,1550 nM,6.92 µM
COc1c(C)n(CCO)ccc1=O,,> 100 µM
Nc1c(-c2ccccc2-c2c(N)[n+]([O-])c3ccccc3[n+]2[O-])[n+]([O-])c2ccccc2[n+]1[O-],,> 100 µM
CN(C)CCNCCN,,> 100 µM
COC(=O)c1cc2c(o1)-c1nccc3c1c(nc1ccccc13)C2=O,17300 nM,34.3 µM
O=C(c1ccco1)c1c(C(F)(F)F)n([O-])c2ccc(C(F)(F)F)cc2[n+]1=O,380 nM,1.38 µM

Structure (SMILES),GI50,TGI
CCN1c2ccccc2-c2c3c1cc(C)cc3c1ccccc1[n+]2CC,,4.1 µM
CC(=O)N1CCN(c2ccc(OCC3COC(Cn4ccnc4)(c4ccc(Cl)cc4Cl)O3)cc2)CC1 (stereo not given),,> 100 µM
O=C(Cc1nc2c3c(ccc2[nH]c1=O)C(=O)c1ccccc1C3=O)C(=O)Nc1ccccc1[N+](=O)[O-],,41.1 µM
CC1=C(C#N)C(=O)CC(c2ccc(Cl)cc2)N(C)N1 (stereo not given),,> 100 µM
Nc1nc(-c2ccc(Cl)c([N+](=O)[O-])c2)cs1,,> 100 µM
CC1(C)CN=C(NN=C(/C=C/c2ccc(C(F)(F)F)cc2)/C=C/c2ccc(C(F)(F)F)cc2)NC1,1320 nM,2.68 µM
COc1cc(/C=C\c2cc(OC)c(OC)c(OC)c2)cc(N/C=C\C(=O)c2c[nH]c3ccccc23)c1OC,2450 nM,7.03 µM
Cn1c(=O)c2c(nc(C(=N)SCC(=O)O)n2C)n(C)c1=O,,> 100 µM
COc1ccc(-c2nn(-c3cccc(Cl)c3)cc2-c2cc(-c3ccccc3)[nH]c(=O)c2C#N)cc1,32300 nM,> 50 µM
CC(C)(C)[Si](C)(C)OC1[C@@H](CNC(=O)NC(=O)CCl)O[C@@H](n2cnc3c(N)ncnc32)[C@H]1O[Si](C)(C)C(C)(C)C (stereo not given in full),818 nM,1.62 µM
NC(=O)C(=O)CC(=O)c1ccccc1NC1=CC(=O)C(=O)c2ccccc21,,> 100 µM
CC1CC(O)C(=O)C(O[C@@H]2C[C@@H]3CC[C@@H]4[C@H](CC[C@]5(C)C(C6=CC(=O)OC6)CC[C@]45O)[C@@]3(C=O)C[C@H]2O)O1 (stereo not given in full),,0.283 µM
CCCC(=O)C1=C(O)C(Cc2c(O)c(C)c(O)c(C(=O)CCC)c2O)=C(O)C(C)(C)C1=O,,33.9 µM
Cc1ccccc1C1=[N+]([O-])c2ccc(Cl)cc2C1=O,,37.8 µM
c1coc(-c2c3ccc(=[N+]4CCCCC4)cc-3oc3cc(N4CCCCC4)ccc23)c1,94.6 nM,1.12 µM
Cc1[nH]c2ccccc2c1C1Cc2ccccc2N1C(=O)C#Cc1ccc([N+](=O)[O-])cc1 (stereo not given),,> 100 µM
CCC/C=C/C=C/C1CC(O)C(O)C(=O)C1CO (stereo not given),,> 100 µM
Cn1c(=O)nc2n(-c3cc(C(F)(F)F)cc(C(F)(F)F)c3)c3ccccc3nc-2c1=O,,> 100 µM

# Tested on: SF-295 CNS
# Test: NCI anticancer screen, dose series, 48 h
Structure (SMILES),GI50,TGI
O=C(O)c1cccc(COc2ccc([N+](=O)[O-])cc2Cl)c1,> 100 µM,> 100 µM
COC(=O)C1=COC(C)C2CN3CCc4c([nH]c5ccccc45)C3CC12 (stereo not given),30.6 µM and 72.9 µM,> 100 µM
CCC(C)(O)c1cnc(CC(C)C)c(=O)n1O (stereo not given),,> 100 µM
CCC1CN2CCc3cc(OC)c(OC)cc3C2CC1CC1c2cc(OC)c(OC)cc2CCN1C(=O)C1CCCN1 (stereo not given),,> 100 µM
CC(C(=O)c1ccc(Cl)cc1)/C(=N/NC(=O)NN)C(=O)Nc1cccc(C(F)(F)F)c1 (stereo not given),,> 100 µM
COc1cc2c(/C=N\N=C(N)N)c[nH]c2cc1C,15.4 µM,43.4 µM
Cn1cc(-c2csc(-c3cn(CCCCN4CCCCC4)c4ccccc34)n2)c2cccnc21,1.64 µM,3.06 µM
